Usually inhibition stands for the change of the read-out against control, counted positive when it falls. Read a high inhibition as a strong effect.

Results on nine molecules are retold here after ChEMBL document CHEMBL4622949, “A chalcone derivative binds a putative allosteric site of YopH: Inhibition of a virulence factor of Yersinia” (Bioorg Med Chem Lett, 2020).

The experiment has as its target T1, Tyrosine-protein phosphatase non-receptor type 22 (Homo sapiens, UniProt Q9Y2R2).
T1 sequence (Q9Y2R2 whole entry): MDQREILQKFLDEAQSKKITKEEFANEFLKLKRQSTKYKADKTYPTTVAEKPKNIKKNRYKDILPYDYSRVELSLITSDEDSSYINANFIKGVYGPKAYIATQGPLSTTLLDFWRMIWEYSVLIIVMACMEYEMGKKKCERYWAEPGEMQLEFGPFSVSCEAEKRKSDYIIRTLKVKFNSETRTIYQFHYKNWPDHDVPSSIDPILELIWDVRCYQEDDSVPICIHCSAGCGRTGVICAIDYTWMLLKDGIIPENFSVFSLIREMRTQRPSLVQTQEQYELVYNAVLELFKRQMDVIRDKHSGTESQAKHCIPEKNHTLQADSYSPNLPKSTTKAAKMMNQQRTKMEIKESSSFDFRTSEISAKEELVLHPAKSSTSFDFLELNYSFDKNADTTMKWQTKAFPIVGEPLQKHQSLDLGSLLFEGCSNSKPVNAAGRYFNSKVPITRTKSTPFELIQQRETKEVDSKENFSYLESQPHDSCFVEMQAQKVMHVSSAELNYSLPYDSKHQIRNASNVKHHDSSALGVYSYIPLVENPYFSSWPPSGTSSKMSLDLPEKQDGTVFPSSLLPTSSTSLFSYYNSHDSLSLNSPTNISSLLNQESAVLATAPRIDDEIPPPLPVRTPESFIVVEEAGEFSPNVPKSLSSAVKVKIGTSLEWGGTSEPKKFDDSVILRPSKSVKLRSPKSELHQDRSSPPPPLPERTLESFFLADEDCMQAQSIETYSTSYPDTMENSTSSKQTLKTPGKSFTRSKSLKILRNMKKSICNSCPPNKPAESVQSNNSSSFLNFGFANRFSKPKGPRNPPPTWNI
The experiment in a line: Inhibition of LYP (unknown origin) at 25 uM using pNPP as substrate relative to control.

`COc1ccc(C(=O)/C=C/c2ccc(C(=O)O)cc2)c(OC)c1` yielded an inhibition at 25 µM of 3.9%.

In turn, `O=C(O)c1ccc(/C=C/C(=O)c2cccc3ccccc23)cc1` yielded an inhibition at 25 µM of 10.3%.

With `COc1cc(C(=O)/C=C/c2ccc(C(=O)O)cc2)ccc1O`, the inhibition at 25 µM was 9.1%.

Turning to `O=C1COc2ccc(C(=O)/C=C/c3ccc(C(=O)O)cc3)cc2N1`, testing at 25 µM gave an inhibition of 33.2%.

`COc1cc(OC)cc(C(=O)/C=C/c2ccc(C(=O)O)cc2)c1` gave an inhibition at 25 µM of 4.6%.

For the molecule `O=C(O)c1ccc(/C=C/C(=O)c2ccc(F)cc2)cc1`, the inhibition at 25 µM is 11.4%.

`COc1cccc(C(=O)/C=C/c2ccc(C(=O)O)cc2)c1` came in with an inhibition at 25 µM of 6.8%.

For `O=C(O)c1ccc(/C=C/C(=O)c2ccccc2)cc1`, the inhibition at 25 µM amounted to 4.2%.

In the case of `O=C(O)c1ccc(/C=C/C(=O)n2ccnc2)cc1`, the inhibition at 25 µM worked out at 25.7%.
